In US20150051257A1, “SULPHONAMIDE DERIVATIVES OF BENZYLAMINE FOR THE TREATMENT OF CNS DISEASES” (ADAMED SP. Z O.O, priority 2012, published 2015):

How the values were obtained:
α2C (h) = molecular target: T1, α2C (h) (Homo sapiens, UniProt P18825); assay: Radioligand binding assay, adrenergic receptor α2C; conditions: test compound 1×10^−6M; [3H]RX 821002; human recombinant (CHO cells)
T1 construct: expressed in transfected cells; host or cells: CHO cells
T1 sequence (P18825 1-462): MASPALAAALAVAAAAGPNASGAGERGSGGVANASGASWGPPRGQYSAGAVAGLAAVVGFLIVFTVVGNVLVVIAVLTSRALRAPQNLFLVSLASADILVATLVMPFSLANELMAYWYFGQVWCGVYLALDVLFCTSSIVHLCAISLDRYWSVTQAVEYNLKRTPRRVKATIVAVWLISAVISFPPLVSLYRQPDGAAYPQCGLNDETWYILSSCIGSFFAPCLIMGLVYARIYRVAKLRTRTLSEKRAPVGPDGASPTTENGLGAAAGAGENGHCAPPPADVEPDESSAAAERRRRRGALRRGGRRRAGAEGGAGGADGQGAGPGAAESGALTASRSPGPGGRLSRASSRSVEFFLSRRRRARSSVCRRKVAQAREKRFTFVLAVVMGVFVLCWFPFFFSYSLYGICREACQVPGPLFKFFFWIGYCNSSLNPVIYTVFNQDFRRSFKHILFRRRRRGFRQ
Protocol: (§1) Specific ligand binding to the receptors is defined as the difference between the total binding and the non-specific binding determined in the presence of an excess of unlabelled ligand.
(§2) The results are expressed as a percent of control specific binding ((measured specific binding/control specific binding)×100%) obtained in the presence of the test compounds. The compounds were tested for their affinity to receptors at a concentration of 1×10^−6M.
(§3) Conditions and methodology of in vitro tests are given by reference to the literature in Table 1, and the results of tests for representative compounds are given in Table 2 (dopaminergic receptors D2 and D3), in Table 3 (dopaminergic receptors D1 and D4.4), in Table 4 (serotoninergic receptors 5-HT1A, 5-HT2A, 5-HT6, 5-HT7), in table 5 (serotoninergic receptors 5-HT2C), in Table 6 (sigma o receptors), in Table 7 (adrenergic receptors α1, histaminergic receptors H1 and muscarinic receptors M3), in Table 8 (adrenergic receptors α2C) and in Table 9 (serotonin transporter receptors SERT).

α1 (non-selective) = assay: Radioligand binding assay, adrenergic α1 receptors; conditions: test compound 1×10^−6M; [3H]prazosin; rat cerebral cortex
Protocol: as §1, §2, §3

D4.4 (h) = molecular target: T2, D4.4 (h) (Homo sapiens, UniProt P21917); assay: Radioligand binding assay, dopaminergic receptor D4.4; conditions: test compound 1×10^−6M; [3H]methyl-spiperone; human recombinant (CHO cells)
T2 construct: expressed in transfected cells; host or cells: CHO cells
T2 sequence (P21917 1-419): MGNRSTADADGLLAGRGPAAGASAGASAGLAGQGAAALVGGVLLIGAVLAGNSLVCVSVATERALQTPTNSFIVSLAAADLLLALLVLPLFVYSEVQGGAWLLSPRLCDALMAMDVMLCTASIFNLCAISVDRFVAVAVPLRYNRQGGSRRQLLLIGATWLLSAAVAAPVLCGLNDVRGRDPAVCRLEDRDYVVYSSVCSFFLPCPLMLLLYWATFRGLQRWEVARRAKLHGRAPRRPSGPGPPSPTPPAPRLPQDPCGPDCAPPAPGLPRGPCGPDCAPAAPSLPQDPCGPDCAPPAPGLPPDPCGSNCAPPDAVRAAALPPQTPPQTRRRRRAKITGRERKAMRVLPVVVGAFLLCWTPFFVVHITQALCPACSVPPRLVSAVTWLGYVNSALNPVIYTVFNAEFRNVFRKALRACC
Protocol: as §1, §2, §3

5-HT2C (h) = molecular target: T3, 5-HT2C (h) (Homo sapiens, UniProt P28335); assay: Radioligand binding assay, serotoninergic receptor 5-HT2C; conditions: test compound 1×10^−6M; [3H]mesulergine; human recombinant (HEK-293 cells)
T3 construct: expressed in transfected cells; host or cells: HEK-293 cells
T3 sequence (P28335 33-458): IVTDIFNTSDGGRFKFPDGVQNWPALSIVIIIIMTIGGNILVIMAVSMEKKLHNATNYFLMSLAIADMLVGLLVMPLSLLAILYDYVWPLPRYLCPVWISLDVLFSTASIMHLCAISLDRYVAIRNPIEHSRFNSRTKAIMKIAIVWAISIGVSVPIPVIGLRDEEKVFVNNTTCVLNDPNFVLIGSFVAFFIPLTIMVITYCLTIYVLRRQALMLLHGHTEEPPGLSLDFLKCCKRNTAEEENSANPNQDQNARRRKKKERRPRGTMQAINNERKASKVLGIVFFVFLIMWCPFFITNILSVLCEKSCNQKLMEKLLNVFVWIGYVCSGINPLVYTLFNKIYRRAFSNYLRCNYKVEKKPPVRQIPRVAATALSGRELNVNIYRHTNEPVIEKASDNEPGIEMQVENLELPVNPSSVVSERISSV
Protocol: as §1, §2, §3

σ (non-selective) = assay: Radioligand binding assay, σ receptors; conditions: test compound 1×10^−6M; [3H]DTG; rat cerebral cortex
Protocol: as §1, §2, §3

M3 (h) = molecular target: T4, M3 (h) (Homo sapiens, UniProt P20309); assay: Radioligand binding assay, muscarinic M3 receptor; conditions: test compound 1×10^−6M; [3H]4-DAMP; human recombinant (CHO cells)
T4 construct: expressed in transfected cells; host or cells: CHO cells
T4 sequence (P20309 whole entry): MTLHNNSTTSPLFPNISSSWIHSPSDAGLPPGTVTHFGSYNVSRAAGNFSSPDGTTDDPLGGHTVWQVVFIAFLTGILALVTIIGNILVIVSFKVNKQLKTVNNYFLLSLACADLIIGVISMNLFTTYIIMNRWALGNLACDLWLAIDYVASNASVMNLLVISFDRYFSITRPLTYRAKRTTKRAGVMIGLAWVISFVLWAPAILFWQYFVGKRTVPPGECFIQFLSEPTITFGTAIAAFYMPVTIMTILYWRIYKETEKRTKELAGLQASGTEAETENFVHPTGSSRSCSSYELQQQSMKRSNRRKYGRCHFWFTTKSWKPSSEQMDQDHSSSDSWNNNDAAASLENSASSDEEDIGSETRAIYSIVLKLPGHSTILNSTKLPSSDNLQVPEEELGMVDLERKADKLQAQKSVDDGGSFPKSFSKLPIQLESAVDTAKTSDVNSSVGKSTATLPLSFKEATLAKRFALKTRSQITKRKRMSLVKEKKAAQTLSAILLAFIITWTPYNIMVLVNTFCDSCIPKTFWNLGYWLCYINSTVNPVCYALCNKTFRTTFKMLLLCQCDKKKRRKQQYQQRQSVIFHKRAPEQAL
Protocol: as §1, §2, §3

5-HT7 (h) = molecular target: T5, 5-HT7 (h) (Homo sapiens, UniProt P34969); assay: Radioligand binding assay, serotoninergic receptor 5-HT7; conditions: test compound 1×10^−6M; [3H]LSD; human recombinant (CHO cells)
T5 construct: expressed in transfected cells; host or cells: CHO cells
T5 sequence (P34969 whole entry): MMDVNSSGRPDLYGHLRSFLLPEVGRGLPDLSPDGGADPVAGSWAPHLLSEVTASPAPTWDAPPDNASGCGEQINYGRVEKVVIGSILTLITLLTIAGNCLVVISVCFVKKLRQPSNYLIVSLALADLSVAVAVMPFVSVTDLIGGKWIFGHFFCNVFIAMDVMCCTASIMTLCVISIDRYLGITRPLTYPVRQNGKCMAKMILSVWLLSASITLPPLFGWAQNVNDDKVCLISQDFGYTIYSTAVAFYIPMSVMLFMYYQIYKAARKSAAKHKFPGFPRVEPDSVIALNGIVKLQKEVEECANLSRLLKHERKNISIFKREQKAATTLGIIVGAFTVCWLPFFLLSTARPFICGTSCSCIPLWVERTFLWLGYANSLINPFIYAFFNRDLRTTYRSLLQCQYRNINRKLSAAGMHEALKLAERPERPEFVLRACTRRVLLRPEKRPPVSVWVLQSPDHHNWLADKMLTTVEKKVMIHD
Protocol: as §1, §2, §3

D2S (h) = molecular target: T6, D2S (h) (Homo sapiens, UniProt P14416); assay: Radioligand binding assay, dopaminergic receptor D2; conditions: test compound 1×10^−6M; [3H]methyl-spiperone; human recombinant (HEK-293 cells)
T6 construct: expressed in transfected cells; host or cells: HEK-293 cells
T6 sequence (P14416 1-414 isoform P14416-2): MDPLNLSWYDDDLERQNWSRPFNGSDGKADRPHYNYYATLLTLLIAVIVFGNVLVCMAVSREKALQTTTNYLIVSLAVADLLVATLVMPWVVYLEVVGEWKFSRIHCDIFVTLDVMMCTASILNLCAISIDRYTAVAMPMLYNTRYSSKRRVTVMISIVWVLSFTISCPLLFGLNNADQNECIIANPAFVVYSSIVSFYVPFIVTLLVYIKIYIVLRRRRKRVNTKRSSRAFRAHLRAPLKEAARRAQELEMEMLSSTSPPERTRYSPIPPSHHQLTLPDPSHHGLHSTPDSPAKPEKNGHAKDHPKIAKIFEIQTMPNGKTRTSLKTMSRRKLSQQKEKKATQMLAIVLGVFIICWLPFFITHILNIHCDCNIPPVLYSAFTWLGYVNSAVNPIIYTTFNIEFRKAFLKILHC
Protocol: as §1, §2, §3

D1 (h) = molecular target: T7, D1 (h) (Homo sapiens, UniProt P21728); assay: Radioligand binding assay, dopaminergic receptor D1; conditions: test compound 1×10^−6M; [3H]SCH 23390; human recombinant (CHO cells)
T7 construct: expressed in transfected cells; host or cells: CHO cells
T7 sequence (P21728 whole entry): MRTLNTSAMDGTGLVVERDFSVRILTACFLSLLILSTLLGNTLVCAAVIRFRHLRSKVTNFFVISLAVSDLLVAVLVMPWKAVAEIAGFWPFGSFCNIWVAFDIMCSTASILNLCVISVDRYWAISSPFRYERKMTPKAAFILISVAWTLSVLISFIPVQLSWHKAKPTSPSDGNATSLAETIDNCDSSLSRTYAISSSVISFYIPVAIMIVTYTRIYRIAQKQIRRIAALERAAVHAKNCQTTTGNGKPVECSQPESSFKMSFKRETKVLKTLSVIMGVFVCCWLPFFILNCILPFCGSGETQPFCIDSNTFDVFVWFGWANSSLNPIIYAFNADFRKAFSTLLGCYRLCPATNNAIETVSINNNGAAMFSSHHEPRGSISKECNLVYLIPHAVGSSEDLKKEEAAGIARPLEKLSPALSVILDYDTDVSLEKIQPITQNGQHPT
Protocol: as §1, §2, §3

H1 (h) = molecular target: T8, H1 (h) (Homo sapiens, UniProt P35367); assay: Radioligand binding assay, histaminergic H1 receptor; conditions: test compound 1×10^−6M; [3H]pyrilamine; human recombinant (HEK-293 cells)
T8 construct: expressed in transfected cells; host or cells: HEK-293 cells
T8 sequence (P35367 whole entry): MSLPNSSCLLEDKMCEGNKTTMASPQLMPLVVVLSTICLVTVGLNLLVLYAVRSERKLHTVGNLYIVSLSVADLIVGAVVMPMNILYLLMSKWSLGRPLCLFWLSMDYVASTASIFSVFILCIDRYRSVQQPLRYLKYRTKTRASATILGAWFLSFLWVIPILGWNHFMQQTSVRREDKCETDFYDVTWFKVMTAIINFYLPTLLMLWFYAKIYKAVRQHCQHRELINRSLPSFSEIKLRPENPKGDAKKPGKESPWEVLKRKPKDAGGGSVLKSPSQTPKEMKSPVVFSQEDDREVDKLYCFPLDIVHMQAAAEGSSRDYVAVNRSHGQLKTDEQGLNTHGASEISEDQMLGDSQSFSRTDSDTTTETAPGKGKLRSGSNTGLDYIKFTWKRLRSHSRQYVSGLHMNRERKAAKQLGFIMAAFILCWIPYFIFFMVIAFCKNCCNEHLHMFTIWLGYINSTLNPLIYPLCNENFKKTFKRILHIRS
Protocol: as §1, §2, §3

D3 (h) = molecular target: T9, D3 (h) (Homo sapiens, UniProt P35462); assay: Radioligand binding assay, dopaminergic receptor D3; conditions: test compound 1×10^−6M; [3H]methyl-spiperone; human recombinant (CHO cells)
T9 construct: expressed in transfected cells; host or cells: CHO cells
T9 sequence (P35462 whole entry): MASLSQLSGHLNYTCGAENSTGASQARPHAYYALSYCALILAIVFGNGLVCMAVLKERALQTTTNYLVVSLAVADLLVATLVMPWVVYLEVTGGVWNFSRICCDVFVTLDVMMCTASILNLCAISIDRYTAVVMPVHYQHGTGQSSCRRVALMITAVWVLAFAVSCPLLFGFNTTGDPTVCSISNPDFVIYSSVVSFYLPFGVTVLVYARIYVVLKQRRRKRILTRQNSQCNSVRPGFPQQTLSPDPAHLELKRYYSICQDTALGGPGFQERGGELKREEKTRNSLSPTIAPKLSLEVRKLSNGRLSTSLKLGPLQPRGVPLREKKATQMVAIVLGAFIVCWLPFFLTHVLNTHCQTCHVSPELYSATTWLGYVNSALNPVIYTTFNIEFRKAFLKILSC
Protocol: as §1, §2, §3

5-HT1A (h) = molecular target: T10, 5-HT1A (h) (Homo sapiens, UniProt P08908); assay: Radioligand binding assay, serotoninergic receptor 5-HT1A; conditions: test compound 1×10^−6M; [3H]8-OH-DPAT; human recombinant (HEK-293 cells)
T10 construct: expressed in transfected cells; host or cells: HEK-293 cells
T10 sequence (P08908 1-422): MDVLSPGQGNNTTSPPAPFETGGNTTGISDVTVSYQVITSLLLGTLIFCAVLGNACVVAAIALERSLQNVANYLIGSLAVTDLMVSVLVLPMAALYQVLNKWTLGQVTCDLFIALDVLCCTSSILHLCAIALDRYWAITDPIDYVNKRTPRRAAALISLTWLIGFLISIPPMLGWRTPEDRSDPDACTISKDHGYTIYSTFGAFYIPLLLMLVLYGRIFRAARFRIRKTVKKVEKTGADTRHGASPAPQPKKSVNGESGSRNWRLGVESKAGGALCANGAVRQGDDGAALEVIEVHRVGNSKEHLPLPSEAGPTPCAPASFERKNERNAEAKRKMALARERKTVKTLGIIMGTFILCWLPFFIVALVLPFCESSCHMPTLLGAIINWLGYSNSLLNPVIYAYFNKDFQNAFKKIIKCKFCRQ
Protocol: as §1, §2, §3

SERT (h) = molecular target: T11, SERT (h) (Homo sapiens, UniProt P31645); assay: Radioligand binding assay, serotonin transporter (SERT); conditions: test compound 1×10^−6M; [3H]imipramine; human recombinant (CHO cells)
T11 construct: expressed in transfected cells; host or cells: CHO cells
T11 sequence (P31645 whole entry): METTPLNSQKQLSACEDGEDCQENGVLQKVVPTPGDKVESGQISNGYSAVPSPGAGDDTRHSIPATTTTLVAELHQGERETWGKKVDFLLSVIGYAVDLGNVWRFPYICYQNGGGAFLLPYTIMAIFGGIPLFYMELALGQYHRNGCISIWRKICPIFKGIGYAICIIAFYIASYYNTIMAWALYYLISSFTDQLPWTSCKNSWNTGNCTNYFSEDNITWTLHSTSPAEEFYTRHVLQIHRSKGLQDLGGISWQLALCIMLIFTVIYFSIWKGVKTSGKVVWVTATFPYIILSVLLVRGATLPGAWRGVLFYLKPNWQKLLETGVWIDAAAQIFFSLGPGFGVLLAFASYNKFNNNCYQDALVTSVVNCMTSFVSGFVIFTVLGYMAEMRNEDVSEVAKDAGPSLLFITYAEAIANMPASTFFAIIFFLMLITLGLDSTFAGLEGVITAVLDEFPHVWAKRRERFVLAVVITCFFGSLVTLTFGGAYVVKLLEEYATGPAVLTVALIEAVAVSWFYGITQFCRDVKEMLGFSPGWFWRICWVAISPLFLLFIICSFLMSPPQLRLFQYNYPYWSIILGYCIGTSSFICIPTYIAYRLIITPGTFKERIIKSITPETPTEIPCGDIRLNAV
Protocol: as §1, §2, §3

5-HT6 (h) = molecular target: T12, 5-HT6 (h) (Homo sapiens, UniProt P50406); assay: Radioligand binding assay, serotoninergic receptor 5-HT6; conditions: test compound 1×10^−6M; [3H]LSD; human recombinant (CHO cells)
T12 construct: expressed in transfected cells; host or cells: CHO cells
T12 sequence (P50406 whole entry): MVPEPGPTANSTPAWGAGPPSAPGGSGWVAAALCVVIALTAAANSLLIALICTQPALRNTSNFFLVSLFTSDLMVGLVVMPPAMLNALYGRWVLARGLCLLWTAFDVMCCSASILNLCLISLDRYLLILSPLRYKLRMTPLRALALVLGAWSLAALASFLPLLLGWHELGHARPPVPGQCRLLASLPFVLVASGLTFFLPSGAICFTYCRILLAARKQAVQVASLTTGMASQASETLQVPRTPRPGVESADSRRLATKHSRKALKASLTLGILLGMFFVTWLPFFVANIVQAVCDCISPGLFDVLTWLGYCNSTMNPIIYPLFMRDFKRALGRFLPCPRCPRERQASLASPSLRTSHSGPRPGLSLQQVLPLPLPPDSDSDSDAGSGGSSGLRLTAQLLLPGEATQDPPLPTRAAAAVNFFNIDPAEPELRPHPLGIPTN
Protocol: as §1, §2, §3

5-HT2A (h) = molecular target: T13, 5-HT2A (h) (Homo sapiens, UniProt P28223); assay: Radioligand binding assay, serotoninergic receptor 5-HT2A; conditions: test compound 1×10^−6M; [3H]ketanserin; human recombinant (HEK-293 cells)
T13 construct: expressed in transfected cells; host or cells: HEK-293 cells
T13 sequence (P28223 whole entry): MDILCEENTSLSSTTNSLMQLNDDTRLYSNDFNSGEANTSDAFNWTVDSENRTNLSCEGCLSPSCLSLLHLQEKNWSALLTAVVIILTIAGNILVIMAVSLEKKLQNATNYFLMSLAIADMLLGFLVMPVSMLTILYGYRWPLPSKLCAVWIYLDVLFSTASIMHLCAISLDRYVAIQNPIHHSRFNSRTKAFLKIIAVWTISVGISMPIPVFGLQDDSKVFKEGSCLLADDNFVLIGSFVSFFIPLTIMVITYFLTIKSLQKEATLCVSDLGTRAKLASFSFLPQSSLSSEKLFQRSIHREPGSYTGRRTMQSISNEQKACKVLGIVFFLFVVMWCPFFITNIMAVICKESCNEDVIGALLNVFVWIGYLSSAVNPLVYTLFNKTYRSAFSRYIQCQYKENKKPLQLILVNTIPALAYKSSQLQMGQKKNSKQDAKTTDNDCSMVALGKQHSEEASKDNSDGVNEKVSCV
Protocol: as §1, §2, §3

[1] = molecular target: T14, hERG potassium channels (KCNH2 gene, expressed in CHO cells) (Homo sapiens, UniProt Q12809); assay: Ability to block hERG potassium channel (electrophysiology, IonWorks Quattro); type: cell-based; conditions: cloned hERG in CHO cells; test pulse +40 mV; concentration not given
T14 construct: expressed in transfected cells; host or cells: CHO cells
Protocol: Ability to Block hERG Potassium Channel Ability to block hERG potassium channels was determined using the electrophysiological method and cloned hERG potassium channels (KCNH2 gene, expressed in CHO cells) as biological material. The effects were evaluated using IonWorks™ Quattro system (MDS-AT).
hERG current was elicited using a pulse pattern with fixed amplitudes (conditioning pre-pulse: −80 mV for 25 ms; test pulse: +40 mV for 80 ms) from a holding potential of 0 mV. hERG current was measured as a difference between the peak current at 1 ms after the test step to +40 mV and the steady-state current at the end of the step to +40 mV.
Data acquisition and analyses were performed using the lonWorks Quattro™ system operation software (version 2.0.2; Molecular Devices Corporation, Union City, Calif.). Data were corrected for leak current.
The hERG block was calculated as: % Block=(1−I TA/IControl)×100%, where IControl and ITA were the currents elicited by the test pulse in control and in the presence of a test compound, respectively.

Male CD-1 mice = assay: d-Amphetamine-induced locomotor hyperactivity in mice; type: in vivo; conditions: compound i.p., d-amphetamine s.c., immediately before the test, ambulation counted during 2 h
Protocol: Potential antipsychotic activity was tested for the representative compound 60 in mouse model of psychosis, involving the induction of locomotor hyperactivity by administering psychotomimetic substance—d-amphetamine. The ability of a test compound to remove that effect is a measure of potential antipsychotic activity.
Male CD-1 mice weighing 20-22 g derived from accredited animal facility localized at Medical College of Jagiellonian University were group-housed for 3-4 day period in polycarbonate Makrolon type 3 cages (dimensions 26.5×15×42 cm) in an environmentally controlled, experimental room (ambient temperature 22-20C; relative humidity 50-60%; 12:12 light:dark cycle, lights on at 8:00), in groups of 15. Standard laboratory food (Morigram, Agropol) and filtered water were freely available. On the day before experiments the equipment produces “white noise” was turned on for 30 minutes and mice or rats were weighted exact to 1 g. Animals were assigned randomly to treatment groups. […]
The locomotor activity was recorded with an Opto M3 multi-channel activity monitor (MultiDevice Software v.1.3, Columbus Instruments). Mice were individually placed in plastic cages (22×12×13 cm) and then the crossings of each channel (ambulation) were counted during 2 h with data recording every 5 minutes. […]

| Compound | α2C [%] (α2C (h)) | α1 [%] (α1 (non-selective)) | D4.4 [%] (D4.4 (h)) | 5-HT2C [%] (5-HT2C (h)) | σ [%] (σ (non-selective)) | M3 [%] (M3 (h)) | 5-HT7 [%] (5-HT7 (h)) | D2 [%] (D2S (h)) | D1 [%] (D1 (h)) | H1 [%] (H1 (h)) | D3 [%] (D3 (h)) | 5-HT1A [%] (5-HT1A (h)) | SERT [%] (SERT (h)) | 5-HT6 [%] (5-HT6 (h)) | 5-HT2A [%] (5-HT2A (h)) | hERG [%] (% Block) [1] | MED (Minimum Effective Dose) (Male CD-1 mice) |
| --- | --- | --- | --- | --- | --- | --- | --- | --- | --- | --- | --- | --- | --- | --- | --- | --- | --- |
| CN(CCCc1noc2cc(F)ccc12)Cc1cccc(NS(=O)(=O)c2ccc(C(C)(C)C)cc2)c1 [Compound 72, 4-tert-butylo-N-[3-[[3-(6-fluoro-1,2-benzoxazol-3-yl)propylmethylamino]methyl]-phenyl]benzenesulphonamide] | 81% | 77% | 60% | 23% | 80% | 25% | 93% | 93% | 45% | 64% | 63% | 30% | 42% | 99% | 87% | – | – |
| CN(CCCc1noc2cc(F)ccc12)Cc1cccc(NS(=O)(=O)c2ccccc2)c1 [Compound 60, N-[3-[[3-(6-fluoro-1,2-benzoxazol-3-yl)propylmethylamino]methyl]phenyl]benzenesulphonamide] | – | – | – | – | – | – | – | – | – | – | – | – | – | – | – | 6% | 10 mg/kg |
| N-[3-[[3-(6-fluoro-1,2-benzoxazol-3-yl)propylamino]methyl]phenyl]naphthalene-1-sulphonamide [Compound 54] | 32% | 48% | 54% | 17% | 50% | 2% | 90% | 94% | 27% | 7% | 76% | 43% | 42% | 88% | 80% | – | – |
